ChEMBL document CHEMBL1154258, “Discovery and optimization of potent and selective functional antagonists of the human adenosine A2B receptor” (Bioorg Med Chem Lett, 2009)

Tested on: Rattus norvegicus
Experiment: Volume of distribution in po dosed rat
Assay type: ADME, organism-based
Settings: in vivo; call rule not given here

SMILES	Vd
C[C@H](Nc1nc(C(=O)N2CCCC2)c2sccc2n1)c1cccnc1	3.9 L/kg
CNc1cc2nc(NCc3cccnc3)nc(C(=O)c3cccs3)c2s1	2.2 L/kg

Tested on: not listed separately
Experiment: Clearance in po dosed rat
Assay type: ADME, organism-based
Settings: in vivo

SMILES	CL/F
C[C@H](Nc1nc(C(=O)N2CCCC2)c2sccc2n1)c1cccnc1	43.3 mL/min/kg

Tested on: not listed separately
Experiment: Permeability across human Caco-2 cells
Assay type: ADME, cell-based
Settings: read-out: permeability

SMILES	Papp
C[C@H](Nc1nc(C(=O)N2CCCC2)c2sccc2n1)c1cccnc1	33 ×10⁻⁶ cm/s

Tested on: Plasma
Experiment: Clearance in human plasma
Settings: not given

SMILES	CL
CNc1cc2nc(NCc3cccnc3)nc(C(=O)c3cccs3)c2s1	28.3 mL/min/kg

Tested on: not listed separately
Experiment: Half life in po dosed rat
Assay type: ADME, organism-based
Settings: in vivo

SMILES	half-life
C[C@H](Nc1nc(C(=O)N2CCCC2)c2sccc2n1)c1cccnc1	2.3 h
CNc1cc2nc(NCc3cccnc3)nc(C(=O)c3cccs3)c2s1	0.93 h

Biological target: T1, Adenosine receptor A2b (Homo sapiens, UniProt P29275)
T1 sequence (P29275 whole entry): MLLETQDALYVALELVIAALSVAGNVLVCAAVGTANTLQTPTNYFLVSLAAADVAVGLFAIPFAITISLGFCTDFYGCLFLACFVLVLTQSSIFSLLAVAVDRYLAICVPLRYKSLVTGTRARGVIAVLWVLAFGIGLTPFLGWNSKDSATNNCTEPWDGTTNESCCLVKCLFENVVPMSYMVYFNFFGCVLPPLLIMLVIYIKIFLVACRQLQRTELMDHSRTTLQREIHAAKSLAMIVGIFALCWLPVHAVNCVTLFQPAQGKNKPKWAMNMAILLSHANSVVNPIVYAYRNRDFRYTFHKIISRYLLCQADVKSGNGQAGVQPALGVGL
Experiment: Antagonist activity at human adenosine A2B receptor expressed in CHOK1 cells assessed as inhibition of calcium mobilization by FLIPR assay
Assay type: functional, cell-based, CHO-K1
Settings: not given

SMILES	IC50
O=C(c1cccnc1)c1nc(NCc2cccnc2)nc2ccsc12	109 nM
O=C(c1nc(NCc2cccnc2)nc2ccsc12)N1CCCC1	189 nM
CCNc1nc(C(=O)c2ccc(C)s2)c2sccc2n1	1260 nM
C[C@@H](Nc1nc(C(=O)N2CCCC2)c2sccc2n1)c1cccnc1	3070 nM
COc1ccc(C(=O)c2nc(NCc3cccnc3)nc3ccsc23)cc1	1300 nM
CCNc1cc2nc(NCc3cccnc3)nc(C(=O)c3cccs3)c2s1	19 nM
CNC(=O)c1nc(NCc2cccnc2)nc2ccsc12	495 nM
O=C(c1cncs1)c1nc(NCc2cccnc2)nc2ccsc12	148 nM
Cc1ccc(C(=O)c2nc(NCc3cccnc3)nc3ccsc23)o1	468 nM
CCc1nc(C(=O)c2ccc(C)s2)c2sccc2n1	3670 nM
O=C(c1nccs1)c1nc(NCc2cccnc2)nc2ccsc12	176 nM
CN(C)c1cc2nc(NCc3cccnc3)nc(C(=O)c3cccs3)c2s1	39 nM
O=C(c1ccncc1)c1nc(NCc2cccnc2)nc2ccsc12	869 nM
O=C(c1cccs1)c1nc(NCc2cccnc2)nc2ccsc12	18 nM
Cc1ccc(C(=O)c2nc(NCCc3ccccn3)nc3ccsc23)s1	944 nM
C[C@H](Nc1nc(C(=O)N2CCCC2)c2sccc2n1)c1cccnc1	18 nM
Cc1ccc(C(=O)c2nc(NCc3ccccc3)nc3ccsc23)s1	5580 nM
Cc1ccc(C(=O)c2nc(NCCc3cccnc3)nc3ccsc23)s1	450 nM
Cc1ccc(C(=O)c2nc(NCC3CCCCC3)nc3ccsc23)s1	> 10000 nM
CCNC(=O)c1nc(NCc2cccnc2)nc2ccsc12	120 nM
O=C(NC1CC1)c1nc(NCc2cccnc2)nc2ccsc12	256 nM

SMILES	IC50
CC(Nc1nc(C(=O)N2CCCC2)c2sccc2n1)c1cccnc1 (racemic)	13 nM
O=C(c1ccccc1)c1nc(NCc2cccnc2)nc2ccsc12	511 nM
O=C(c1cccs1)c1nc(NCc2cccnc2)nc2cc(Cl)sc12	16 nM
CC(C)NC(=O)c1nc(NCc2cccnc2)nc2ccsc12	309 nM
Cc1ccc(C(=O)c2ncnc3ccsc23)s1	5380 nM
Nc1cc2nc(NCc3cccnc3)nc(C(=O)c3cccs3)c2s1	32 nM
Cc1nc(C(=O)c2ccc(C)s2)c2sccc2n1	> 10000 nM
Cc1ccc(C(=O)c2nc(NCc3ccncn3)nc3ccsc23)s1	92 nM
Cc1ccc(C(=O)c2nc(N(C)Cc3cccnc3)nc3ccsc23)s1	4140 nM
Cc1ccc(C(=O)c2nc(N)nc3ccsc23)s1	758 nM
O=C(c1ccc(Cl)s1)c1nc(NCc2cccnc2)nc2ccsc12	487 nM
CNc1cc2nc(NCc3cccnc3)nc(C(=O)c3cccs3)c2s1	3.5 nM
Cc1ccc(C(=O)c2nc(NCc3cccnc3)nc3ccsc23)cc1	215 nM
Cc1ccc(C(=O)c2nc(NC(C)c3ccccn3)nc3ccsc23)s1 (stereo not drawn)	19 nM
O=C(c1ccsc1)c1nc(NCc2cccnc2)nc2ccsc12	148 nM
Cc1ccc(C(=O)c2nc(NC(=O)c3cccnc3)nc3ccsc23)s1	287 nM
O=C(NC1CCCCC1)c1nc(NCc2cccnc2)nc2ccsc12	571 nM
Cc1ccc(C(=O)c2nc(NC(C)c3ccccc3)nc3ccsc23)s1 (stereo not drawn)	414 nM
Cc1ccc(C(=O)c2nc(NC(C)c3cccnc3)nc3ccsc23)s1 (stereo not drawn)	17 nM
Cc1ccc(C(=O)c2nc(NCc3ccccn3)nc3ccsc23)s1	43 nM
Cc1ccc(C(=O)c2nc(NCc3cccnc3)nc3ccsc23)s1	55 nM

Biological target: Adenosine receptor A2a (Homo sapiens, UniProt P29274)
Experiment: Antagonist activity at human adenosine A2A receptor expressed in CHOK1 cells assessed as inhibition of calcium mobilization by FLIPR assay
Assay type: functional, cell-based, CHO-K1
Settings: not given

Sequence of Adenosine receptor A2a (P29274 whole entry): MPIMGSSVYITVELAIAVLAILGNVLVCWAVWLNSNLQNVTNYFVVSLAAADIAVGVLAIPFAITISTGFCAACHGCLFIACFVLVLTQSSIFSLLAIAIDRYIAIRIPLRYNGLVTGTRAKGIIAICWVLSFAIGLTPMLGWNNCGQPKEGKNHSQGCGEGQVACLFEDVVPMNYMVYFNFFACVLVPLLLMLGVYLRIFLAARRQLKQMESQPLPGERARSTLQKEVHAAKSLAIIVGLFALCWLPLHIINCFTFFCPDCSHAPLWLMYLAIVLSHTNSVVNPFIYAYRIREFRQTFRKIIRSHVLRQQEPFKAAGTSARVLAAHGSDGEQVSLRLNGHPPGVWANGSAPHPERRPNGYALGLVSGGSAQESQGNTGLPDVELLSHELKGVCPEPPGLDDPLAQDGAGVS

SMILES	IC50
O=C(c1cccnc1)c1nc(NCc2cccnc2)nc2ccsc12	1170 nM
O=C(c1nc(NCc2cccnc2)nc2ccsc12)N1CCCC1	6140 nM
CCNc1nc(C(=O)c2ccc(C)s2)c2sccc2n1	126 nM
C[C@@H](Nc1nc(C(=O)N2CCCC2)c2sccc2n1)c1cccnc1	6760 nM
COc1ccc(C(=O)c2nc(NCc3cccnc3)nc3ccsc23)cc1	637 nM
CCNc1cc2nc(NCc3cccnc3)nc(C(=O)c3cccs3)c2s1	2490 nM
O=C(c1cncs1)c1nc(NCc2cccnc2)nc2ccsc12	1720 nM
Cc1ccc(C(=O)c2nc(NCc3cccnc3)nc3ccsc23)o1	1250 nM
CCc1nc(C(=O)c2ccc(C)s2)c2sccc2n1	3850 nM
O=C(c1nccs1)c1nc(NCc2cccnc2)nc2ccsc12	732 nM
CN(C)c1cc2nc(NCc3cccnc3)nc(C(=O)c3cccs3)c2s1	1420 nM
O=C(c1ccncc1)c1nc(NCc2cccnc2)nc2ccsc12	1940 nM
O=C(c1cccs1)c1nc(NCc2cccnc2)nc2ccsc12	51 nM
Cc1ccc(C(=O)c2nc(NCCc3ccccn3)nc3ccsc23)s1	351 nM
C[C@H](Nc1nc(C(=O)N2CCCC2)c2sccc2n1)c1cccnc1	468 nM
Cc1ccc(C(=O)c2nc(NCc3ccccc3)nc3ccsc23)s1	7150 nM
Cc1ccc(C(=O)c2nc(NCCc3cccnc3)nc3ccsc23)s1	177 nM
Cc1ccc(C(=O)c2nc(NCC3CCCCC3)nc3ccsc23)s1	> 10000 nM
CCNC(=O)c1nc(NCc2cccnc2)nc2ccsc12	2520 nM
O=C(NC1CC1)c1nc(NCc2cccnc2)nc2ccsc12	710 nM

SMILES	IC50
CC(Nc1nc(C(=O)N2CCCC2)c2sccc2n1)c1cccnc1 (racemic)	2350 nM
O=C(c1ccccc1)c1nc(NCc2cccnc2)nc2ccsc12	1620 nM
O=C(c1cccs1)c1nc(NCc2cccnc2)nc2cc(Cl)sc12	62 nM
CC(C)NC(=O)c1nc(NCc2cccnc2)nc2ccsc12	2610 nM
Cc1ccc(C(=O)c2ncnc3ccsc23)s1	6690 nM
Nc1cc2nc(NCc3cccnc3)nc(C(=O)c3cccs3)c2s1	> 10000 nM
Cc1nc(C(=O)c2ccc(C)s2)c2sccc2n1	7850 nM
Cc1ccc(C(=O)c2nc(NCc3ccncn3)nc3ccsc23)s1	116 nM
Cc1ccc(C(=O)c2nc(N(C)Cc3cccnc3)nc3ccsc23)s1	2270 nM
Cc1ccc(C(=O)c2nc(N)nc3ccsc23)s1	220 nM
O=C(c1ccc(Cl)s1)c1nc(NCc2cccnc2)nc2ccsc12	1540 nM
CNc1cc2nc(NCc3cccnc3)nc(C(=O)c3cccs3)c2s1	965 nM
Cc1ccc(C(=O)c2nc(NCc3cccnc3)nc3ccsc23)cc1	442 nM
Cc1ccc(C(=O)c2nc(NC(C)c3ccccn3)nc3ccsc23)s1 (stereo not drawn)	118 nM
O=C(c1ccsc1)c1nc(NCc2cccnc2)nc2ccsc12	405 nM
Cc1ccc(C(=O)c2nc(NC(=O)c3cccnc3)nc3ccsc23)s1	161 nM
Cc1ccc(C(=O)c2nc(NC(C)c3ccccc3)nc3ccsc23)s1 (stereo not drawn)	1080 nM
Cc1ccc(C(=O)c2nc(NC(C)c3cccnc3)nc3ccsc23)s1 (stereo not drawn)	99 nM
Cc1ccc(C(=O)c2nc(NCc3ccccn3)nc3ccsc23)s1	186 nM
Cc1ccc(C(=O)c2nc(NCc3cccnc3)nc3ccsc23)s1	990 nM

Biological target: Voltage-gated inwardly rectifying potassium channel KCNH2 (Homo sapiens, UniProt Q12809)
Experiment: Inhibition of human ERG at 30 uM by patch clamp method
Settings: not given

Sequence of Voltage-gated inwardly rectifying potassium channel KCNH2 (Q12809 whole entry): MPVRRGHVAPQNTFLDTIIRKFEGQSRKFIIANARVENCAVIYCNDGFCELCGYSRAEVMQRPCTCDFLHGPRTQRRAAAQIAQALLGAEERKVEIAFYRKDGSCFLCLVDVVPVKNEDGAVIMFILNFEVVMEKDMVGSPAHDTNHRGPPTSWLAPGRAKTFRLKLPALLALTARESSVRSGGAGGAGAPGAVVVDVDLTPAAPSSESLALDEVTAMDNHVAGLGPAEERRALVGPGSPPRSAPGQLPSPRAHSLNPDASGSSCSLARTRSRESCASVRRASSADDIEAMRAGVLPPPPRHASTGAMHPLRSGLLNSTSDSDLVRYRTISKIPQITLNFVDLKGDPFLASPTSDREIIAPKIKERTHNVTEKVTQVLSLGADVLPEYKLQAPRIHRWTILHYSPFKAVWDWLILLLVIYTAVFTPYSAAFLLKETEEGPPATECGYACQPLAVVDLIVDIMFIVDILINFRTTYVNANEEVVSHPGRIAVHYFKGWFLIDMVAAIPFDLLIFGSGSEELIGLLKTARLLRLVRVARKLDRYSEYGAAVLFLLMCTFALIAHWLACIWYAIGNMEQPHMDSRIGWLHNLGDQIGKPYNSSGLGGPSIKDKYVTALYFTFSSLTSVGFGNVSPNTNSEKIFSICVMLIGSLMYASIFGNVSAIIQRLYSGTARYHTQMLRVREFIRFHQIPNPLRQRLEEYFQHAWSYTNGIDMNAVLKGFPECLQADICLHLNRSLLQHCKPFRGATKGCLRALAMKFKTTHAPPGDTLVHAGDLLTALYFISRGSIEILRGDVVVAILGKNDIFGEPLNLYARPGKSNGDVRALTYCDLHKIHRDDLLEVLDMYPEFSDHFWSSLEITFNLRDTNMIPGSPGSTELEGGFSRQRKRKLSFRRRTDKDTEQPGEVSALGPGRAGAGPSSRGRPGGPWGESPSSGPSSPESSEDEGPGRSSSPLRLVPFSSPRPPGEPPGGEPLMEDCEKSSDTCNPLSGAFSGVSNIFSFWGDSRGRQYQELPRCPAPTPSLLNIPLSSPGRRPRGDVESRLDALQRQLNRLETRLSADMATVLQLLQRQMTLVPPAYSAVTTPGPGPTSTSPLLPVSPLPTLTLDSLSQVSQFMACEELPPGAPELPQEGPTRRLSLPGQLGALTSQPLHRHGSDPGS

SMILES	inhibition (INH)
C[C@H](Nc1nc(C(=O)N2CCCC2)c2sccc2n1)c1cccnc1	Not Active

Tested on: not listed separately
Experiment: Oral bioavailability in rat
Assay type: ADME, organism-based
Settings: in vivo

SMILES	bioavailability
C[C@H](Nc1nc(C(=O)N2CCCC2)c2sccc2n1)c1cccnc1	84%
CNc1cc2nc(NCc3cccnc3)nc(C(=O)c3cccs3)c2s1	2%

Species on record: Homo sapiens
Experiment: Protein binding in human plasma
Settings: read-out: PPB (converted)

SMILES	fraction unbound
C[C@H](Nc1nc(C(=O)N2CCCC2)c2sccc2n1)c1cccnc1	0.15
